Patent US8415469B2, “Compounds and methods for kinase modulation, and indications therefor” (Plexxikon Inc., priority 2005, dated 2013)

Legend:
Assay type in all cases: biochemical
FGFR1 = target: T1, FGFR1 (Homo sapiens, UniProt P11362, C488A/C584S); assay: AlphaScreen kinase assay, FGFR1; settings: read-out: IC50, activity toward kinase FGFR
T1 construct: P1351.pET N6 BI-PTP FGFR A458-E765-X C488A, C584S; made in house; host or cells: E. coli (PTP1B co-expressed)

TEC = target: T2, TEC (Homo sapiens, UniProt P42680); assay: AlphaScreen kinase assay, TEC; settings: read-out: IC50, activity toward kinase TEC
T2 sequence (P42680 1-631): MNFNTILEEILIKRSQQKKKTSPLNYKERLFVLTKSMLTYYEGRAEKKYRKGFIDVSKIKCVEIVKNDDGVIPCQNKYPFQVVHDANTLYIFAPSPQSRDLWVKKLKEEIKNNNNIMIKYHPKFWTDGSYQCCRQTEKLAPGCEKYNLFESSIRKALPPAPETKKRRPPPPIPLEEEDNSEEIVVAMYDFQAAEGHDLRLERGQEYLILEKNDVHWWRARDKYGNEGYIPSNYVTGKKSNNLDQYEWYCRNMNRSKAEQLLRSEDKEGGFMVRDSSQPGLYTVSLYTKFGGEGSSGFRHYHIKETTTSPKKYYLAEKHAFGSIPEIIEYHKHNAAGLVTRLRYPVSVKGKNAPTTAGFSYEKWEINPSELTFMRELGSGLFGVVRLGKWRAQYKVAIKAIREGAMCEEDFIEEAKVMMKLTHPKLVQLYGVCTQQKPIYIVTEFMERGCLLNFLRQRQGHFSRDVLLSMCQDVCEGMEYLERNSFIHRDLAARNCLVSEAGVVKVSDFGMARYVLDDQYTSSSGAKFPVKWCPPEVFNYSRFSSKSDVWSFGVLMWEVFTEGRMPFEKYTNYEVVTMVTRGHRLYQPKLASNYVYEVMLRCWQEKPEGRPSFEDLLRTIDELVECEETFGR
Description: AlphaScreen assay was used to screen additional kinases. The assay is similarly dependent on the phosphorylation of a peptide substrate. In this assay, an antibody that recognizes phosphorylated substrate is bound to an acceptor bead. The peptide substrate is attached to biotin, which binds to a donor head that contains streptavidin. Thus phosphorylated substrate is bound by antibody and streptavidin, bringing the donor and acceptor heads into close proximity when kinase is not inhibited. The donor produces singlet oxygen which results in emission from the acceptor when they are in close proximity. Conversely, when kinase is inhibited, the donor and acceptor beads are not associated and the emission from the acceptor is reduced.
AlphaScreen assays were done using compounds dissolved in DMSO to a concentration of 20 mM. The compounds were diluted accordingly to the desired final concentrations in each sample well, using 1:3 serial dilution for a total of 8 concentration points.

Jnk1 = target: T3, Jnk1 (Homo sapiens, UniProt P45983); assay: AlphaScreen kinase assay, Jnk1; settings: read-out: IC50, activity toward kinase Jnk1
T3 construct: purchased Upstate Biotechnology
T3 sequence (P45983 whole entry): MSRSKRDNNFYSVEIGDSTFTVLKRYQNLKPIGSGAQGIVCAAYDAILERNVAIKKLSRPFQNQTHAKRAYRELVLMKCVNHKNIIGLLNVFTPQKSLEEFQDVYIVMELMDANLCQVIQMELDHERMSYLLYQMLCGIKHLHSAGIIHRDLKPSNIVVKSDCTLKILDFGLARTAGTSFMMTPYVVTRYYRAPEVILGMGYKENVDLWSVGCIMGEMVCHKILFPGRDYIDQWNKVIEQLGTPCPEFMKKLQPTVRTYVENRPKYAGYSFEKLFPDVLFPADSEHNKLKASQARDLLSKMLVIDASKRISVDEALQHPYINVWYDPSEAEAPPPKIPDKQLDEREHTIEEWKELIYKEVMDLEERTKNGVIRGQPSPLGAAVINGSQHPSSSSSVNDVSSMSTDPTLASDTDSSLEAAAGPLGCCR

c-Raf-1 = target: T4, c-Raf-1 (Homo sapiens, UniProt P04049); assay: AlphaScreen kinase assay, c-Raf-1; settings: read-out: IC50, activity toward kinase c-Raf-1
T4 construct: purchased Upstate Biotechnology
T4 sequence (P04049 whole entry): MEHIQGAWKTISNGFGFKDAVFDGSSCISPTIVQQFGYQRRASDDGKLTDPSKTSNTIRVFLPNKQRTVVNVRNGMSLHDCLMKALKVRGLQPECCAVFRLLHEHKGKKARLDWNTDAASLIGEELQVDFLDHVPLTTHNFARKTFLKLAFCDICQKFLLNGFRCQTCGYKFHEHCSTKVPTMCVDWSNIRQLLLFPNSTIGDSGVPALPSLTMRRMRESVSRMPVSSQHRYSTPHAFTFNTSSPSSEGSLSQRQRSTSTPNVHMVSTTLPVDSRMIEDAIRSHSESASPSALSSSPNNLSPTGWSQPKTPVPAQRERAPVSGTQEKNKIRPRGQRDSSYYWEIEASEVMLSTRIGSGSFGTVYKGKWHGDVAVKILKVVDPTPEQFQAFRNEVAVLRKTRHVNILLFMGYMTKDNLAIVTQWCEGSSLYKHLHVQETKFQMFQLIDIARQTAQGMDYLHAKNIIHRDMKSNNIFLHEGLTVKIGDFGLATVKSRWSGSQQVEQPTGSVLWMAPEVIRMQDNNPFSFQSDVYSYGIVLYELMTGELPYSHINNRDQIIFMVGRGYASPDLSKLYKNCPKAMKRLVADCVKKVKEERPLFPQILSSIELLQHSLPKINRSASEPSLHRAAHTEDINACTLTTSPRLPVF

Ret = target: T5, Ret (Homo sapiens, UniProt P07949); assay: AlphaScreen kinase assay, Ret; settings: read-out: IC50, activity toward kinase Ret
T5 construct: P1378.pET-SF BI-PTP RET H661-R1012 HIS; made in house
T5 sequence (P07949 with tags, fused parts or gaps): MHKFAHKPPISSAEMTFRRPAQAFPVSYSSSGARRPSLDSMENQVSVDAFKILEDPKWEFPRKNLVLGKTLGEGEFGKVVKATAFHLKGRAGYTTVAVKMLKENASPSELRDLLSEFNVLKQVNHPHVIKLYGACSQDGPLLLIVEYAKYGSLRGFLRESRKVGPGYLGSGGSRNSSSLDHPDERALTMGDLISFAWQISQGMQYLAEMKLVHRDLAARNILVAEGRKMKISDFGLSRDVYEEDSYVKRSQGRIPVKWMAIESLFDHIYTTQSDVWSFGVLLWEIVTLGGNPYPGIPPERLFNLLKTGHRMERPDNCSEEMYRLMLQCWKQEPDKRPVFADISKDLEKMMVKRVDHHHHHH

B-Raf V600E = target: T6, B-Raf V600E (Homo sapiens, UniProt P15056, V600E); assay: AlphaScreen kinase assay, B-Raf V600E; settings: read-out: IC50, activity toward kinase B-Raf V600E
T6 construct: P4254. pFastBacBD-CDC37 BRAF D437-K722-X, V600E; His6 with pFastBac HT leader (TEV site) (N); made in house; host or cells: Sf9 (baculovirus; chaperone CDC37 co-expressed)
T6 sequence (P15056 with tags, fused parts or gaps V600E): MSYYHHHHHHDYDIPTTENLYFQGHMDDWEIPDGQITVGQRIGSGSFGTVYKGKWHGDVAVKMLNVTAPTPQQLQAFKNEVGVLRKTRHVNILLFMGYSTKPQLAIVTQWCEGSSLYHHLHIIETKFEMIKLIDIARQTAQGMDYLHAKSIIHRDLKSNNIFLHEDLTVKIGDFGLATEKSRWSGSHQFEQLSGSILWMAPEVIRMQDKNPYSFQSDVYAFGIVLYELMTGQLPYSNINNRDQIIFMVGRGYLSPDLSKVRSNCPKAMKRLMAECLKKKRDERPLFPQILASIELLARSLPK

Btk = target: T7, Btk (Homo sapiens, UniProt Q06187); assay: Z'-Lyte FRET kinase assay (Invitrogen), Btk; settings: read-out: IC50, activity toward kinase Btk
T7 construct: purchased Invitrogen (assay run by Invitrogen)
T7 sequence (Q06187 whole entry): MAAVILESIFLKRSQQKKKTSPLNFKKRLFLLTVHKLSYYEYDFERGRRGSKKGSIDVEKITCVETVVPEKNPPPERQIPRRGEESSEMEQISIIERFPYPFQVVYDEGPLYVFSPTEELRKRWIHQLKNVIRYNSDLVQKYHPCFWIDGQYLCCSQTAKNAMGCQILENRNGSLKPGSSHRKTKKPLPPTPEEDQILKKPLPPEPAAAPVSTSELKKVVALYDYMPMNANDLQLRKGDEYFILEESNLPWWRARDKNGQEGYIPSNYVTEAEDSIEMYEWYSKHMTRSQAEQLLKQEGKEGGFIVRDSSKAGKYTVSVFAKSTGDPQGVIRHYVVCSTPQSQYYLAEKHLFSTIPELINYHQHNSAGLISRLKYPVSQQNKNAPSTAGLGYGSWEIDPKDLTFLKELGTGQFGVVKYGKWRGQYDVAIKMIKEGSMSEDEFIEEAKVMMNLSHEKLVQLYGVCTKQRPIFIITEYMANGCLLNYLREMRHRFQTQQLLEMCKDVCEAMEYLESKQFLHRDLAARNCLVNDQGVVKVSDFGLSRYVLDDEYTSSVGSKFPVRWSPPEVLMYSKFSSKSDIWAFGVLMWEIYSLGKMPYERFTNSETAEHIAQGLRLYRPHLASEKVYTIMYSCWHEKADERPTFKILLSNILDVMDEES

Jnk2 = target: T8, Jnk2 (Homo sapiens, UniProt P45984); assay: AlphaScreen kinase assay, Jnk2; settings: read-out: IC50, activity toward kinase Jnk2
T8 construct: purchased Roche Protein Expression Group (Indianapolis, IN)
T8 sequence (P45984 whole entry): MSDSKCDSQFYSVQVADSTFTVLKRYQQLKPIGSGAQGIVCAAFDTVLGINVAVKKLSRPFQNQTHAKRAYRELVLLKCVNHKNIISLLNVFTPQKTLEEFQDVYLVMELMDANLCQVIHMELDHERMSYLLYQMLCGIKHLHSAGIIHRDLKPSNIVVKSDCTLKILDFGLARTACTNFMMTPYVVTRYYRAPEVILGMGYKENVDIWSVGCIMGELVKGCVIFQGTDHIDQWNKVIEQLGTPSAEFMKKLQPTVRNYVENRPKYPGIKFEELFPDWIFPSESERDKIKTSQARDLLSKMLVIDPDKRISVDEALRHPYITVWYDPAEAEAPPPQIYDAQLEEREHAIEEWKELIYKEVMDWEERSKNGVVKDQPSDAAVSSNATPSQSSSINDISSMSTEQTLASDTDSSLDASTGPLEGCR
Outline: (§1)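 Uses phospho-specific antibody on acceptor beads plus streptavidin donor beads capturing biotinylated peptide substrate; singlet oxygen from donor excites nearby acceptor. Inhibitors tested in 8-point, 1:3 titrations starting from 20 mM DMSO solutions.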

Met = target: T9, Met (Homo sapiens, UniProt P08581); assay: AlphaScreen kinase assay, Met; settings: read-out: IC50, activity toward kinase Met
T9 construct: P1818.pETN6 BI-PTP MET G1056-G1364-X WT; His6 (N); made in house; host or cells: E. coli (PTP1B co-expressed)
Outline: as §1

Pyk2 = target: T10, Pyk2 (Homo sapiens, UniProt Q14289); assay: AlphaScreen kinase assay, Pyk2; settings: read-out: IC50, activity toward kinase Pyk2
T10 construct: purchased Upstate Biotechnology
T10 sequence (Q14289 whole entry): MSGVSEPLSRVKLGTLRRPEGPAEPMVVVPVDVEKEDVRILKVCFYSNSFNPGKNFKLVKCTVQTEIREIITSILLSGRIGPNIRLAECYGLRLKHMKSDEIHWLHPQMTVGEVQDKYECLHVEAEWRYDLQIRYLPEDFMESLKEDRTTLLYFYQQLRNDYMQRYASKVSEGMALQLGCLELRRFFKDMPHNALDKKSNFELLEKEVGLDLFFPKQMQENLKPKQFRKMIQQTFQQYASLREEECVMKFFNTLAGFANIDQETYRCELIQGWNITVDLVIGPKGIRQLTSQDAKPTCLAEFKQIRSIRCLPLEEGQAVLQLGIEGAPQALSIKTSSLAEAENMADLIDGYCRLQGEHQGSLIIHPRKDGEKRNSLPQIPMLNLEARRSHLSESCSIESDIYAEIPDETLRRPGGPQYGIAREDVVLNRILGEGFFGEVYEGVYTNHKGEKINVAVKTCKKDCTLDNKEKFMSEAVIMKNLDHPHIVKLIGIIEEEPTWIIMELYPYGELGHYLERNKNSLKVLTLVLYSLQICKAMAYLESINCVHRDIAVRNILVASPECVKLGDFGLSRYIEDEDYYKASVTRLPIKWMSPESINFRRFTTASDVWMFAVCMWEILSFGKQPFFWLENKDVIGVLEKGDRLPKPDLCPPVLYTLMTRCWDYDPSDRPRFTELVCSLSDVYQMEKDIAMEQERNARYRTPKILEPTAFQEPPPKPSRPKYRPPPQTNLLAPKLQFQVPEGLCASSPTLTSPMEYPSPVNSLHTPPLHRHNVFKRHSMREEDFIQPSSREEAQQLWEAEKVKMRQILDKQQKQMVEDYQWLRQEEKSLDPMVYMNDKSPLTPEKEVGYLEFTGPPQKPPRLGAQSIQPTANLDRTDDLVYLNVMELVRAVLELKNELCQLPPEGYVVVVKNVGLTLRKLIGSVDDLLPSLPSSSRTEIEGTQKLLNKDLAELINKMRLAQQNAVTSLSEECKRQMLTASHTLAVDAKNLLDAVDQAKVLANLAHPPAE

Kit = target: T11, Kit (Homo sapiens, UniProt P10721); assay: AlphaScreen kinase assay, Kit; settings: read-out: IC50, activity toward kinase Kit
T11 construct: P1332.N6 BI PTP KIT M552-K948-X COD; His6 (N); made in house; host or cells: E. coli (PTP1B co-expressed)

Jnk3 = target: T12, Jnk3 (Homo sapiens, UniProt P53779); assay: AlphaScreen kinase assay, Jnk3; settings: read-out: IC50, activity toward kinase Jnk3
T12 construct: purchased Upstate Biotechnology
T12 sequence (P53779 whole entry): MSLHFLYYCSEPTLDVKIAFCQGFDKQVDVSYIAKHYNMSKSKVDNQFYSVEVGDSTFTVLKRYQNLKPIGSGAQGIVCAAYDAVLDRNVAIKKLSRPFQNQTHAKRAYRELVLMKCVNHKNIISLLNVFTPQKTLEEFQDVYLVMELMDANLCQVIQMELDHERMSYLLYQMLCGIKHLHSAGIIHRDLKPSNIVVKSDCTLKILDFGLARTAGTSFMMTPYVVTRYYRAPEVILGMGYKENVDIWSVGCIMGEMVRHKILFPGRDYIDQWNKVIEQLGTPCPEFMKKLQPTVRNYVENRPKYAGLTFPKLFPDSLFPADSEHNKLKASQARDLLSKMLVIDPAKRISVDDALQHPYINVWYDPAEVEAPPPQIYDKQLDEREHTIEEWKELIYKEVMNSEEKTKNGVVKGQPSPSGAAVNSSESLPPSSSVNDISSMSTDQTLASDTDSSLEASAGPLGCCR

B-Raf = target: T13, B-Raf (Homo sapiens, UniProt P15056); assay: AlphaScreen kinase assay, B-Raf; settings: read-out: IC50, activity toward kinase B-Raf
T13 construct: purchased Upstate Biotechnology
T13 sequence (P15056 whole entry): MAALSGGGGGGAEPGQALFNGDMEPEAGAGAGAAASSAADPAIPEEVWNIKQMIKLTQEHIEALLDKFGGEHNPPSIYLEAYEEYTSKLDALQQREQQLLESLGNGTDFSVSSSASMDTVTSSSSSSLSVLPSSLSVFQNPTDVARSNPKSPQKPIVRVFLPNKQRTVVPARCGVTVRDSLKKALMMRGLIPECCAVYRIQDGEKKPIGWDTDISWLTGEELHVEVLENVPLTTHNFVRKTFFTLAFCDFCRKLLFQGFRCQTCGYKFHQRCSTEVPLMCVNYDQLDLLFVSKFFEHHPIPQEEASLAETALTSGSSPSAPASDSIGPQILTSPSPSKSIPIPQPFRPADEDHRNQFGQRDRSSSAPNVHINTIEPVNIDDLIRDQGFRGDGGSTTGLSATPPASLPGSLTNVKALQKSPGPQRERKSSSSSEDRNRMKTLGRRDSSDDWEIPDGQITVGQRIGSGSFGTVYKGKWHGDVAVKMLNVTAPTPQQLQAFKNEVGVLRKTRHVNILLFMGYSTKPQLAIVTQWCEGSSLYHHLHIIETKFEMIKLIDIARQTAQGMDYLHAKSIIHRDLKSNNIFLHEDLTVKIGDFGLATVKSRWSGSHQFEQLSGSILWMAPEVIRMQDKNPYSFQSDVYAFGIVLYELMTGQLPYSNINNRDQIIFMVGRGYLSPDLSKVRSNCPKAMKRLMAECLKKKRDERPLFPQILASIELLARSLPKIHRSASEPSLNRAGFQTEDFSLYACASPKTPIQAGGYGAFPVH

Fms = target: T14, Fms (Homo sapiens, UniProt P07333); assay: AlphaScreen kinase assay, Fms; settings: read-out: IC50, activity toward kinase Fms
T14 construct: purchased Upstate Biotechnology

Fak = target: T15, Fak (Homo sapiens, UniProt Q05397); assay: AlphaScreen kinase assay, Fak; settings: read-out: IC50, activity toward kinase Fak
T15 construct: P1358.pFastBacHtb FAK S411-Q686-X; His6 with pFastBacHTb leader (TEV site) (N); made in house; host or cells: Sf9 (baculovirus)

Src = target: T16, Src (Homo sapiens, UniProt P12931); assay: AlphaScreen kinase assay, Src; settings: read-out: IC50, activity toward kinase Src
T16 construct: P1144. pET-N6 BI-PTP SRC V86-L536-X; made in house

Measured: IC50

T1 sequence (P11362 458-765 C488A/C584S): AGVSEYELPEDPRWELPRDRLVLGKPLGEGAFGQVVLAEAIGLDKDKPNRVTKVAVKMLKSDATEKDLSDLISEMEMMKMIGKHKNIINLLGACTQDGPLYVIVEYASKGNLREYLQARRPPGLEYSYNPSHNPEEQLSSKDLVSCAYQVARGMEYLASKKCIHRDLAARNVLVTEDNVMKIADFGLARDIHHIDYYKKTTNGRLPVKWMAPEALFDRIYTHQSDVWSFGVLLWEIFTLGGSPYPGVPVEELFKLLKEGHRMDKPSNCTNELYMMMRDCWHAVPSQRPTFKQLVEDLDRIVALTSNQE

CS(=O)(=O)Nc1cccc(-c2cnc3[nH]cc(C(=O)c4cc(NS(C)(=O)=O)ccc4F)c3c2)c1 [Compound P-0156, N-{4-Fluoro-3-[5-(3-methanesulfonylamino-phenyl)-1H-pyrrolo[2,3-b]pyridine-3-carbonyl]-phenyl}-methanesulfonamide]
≤ 10 µM: FGFR1 | TEC | Jnk1 | c-Raf-1 | Ret | B-Raf V600E | Btk | Jnk2 | Met

COC(=O)Nc1ccc(F)c(Cc2c[nH]c3ncc(-c4cccnc4)cc23)c1F [Compound P-0257, [2,4-Difluoro-3-(5-pyridin-3-yl-1H-pyrrolo[2,3-b]pyridin-3-ylmethyl)-phenyl]-carbamic acid methyl ester]
not listed: Jnk2 | Met | Src
≤ 10 µM: all other assays above

CS(=O)(=O)Nc1ccc(F)c(C(=O)c2c[nH]c3ncc(-c4cccc(S(C)(=O)=O)c4)cc23)c1 [Compound P-0297, N-{4-Fluoro-3-[5-(3-methanesulfonyl-phenyl)-1H-pyrrolo[2,3-b]pyridine-3-carbonyl]-phenyl}-methanesulfonamide]
not listed: Met | Pyk2 | Kit | Jnk3 | Fak | Src
≤ 10 µM: all other assays above

O=C(NCc1ccc(CCc2c[nH]c3ncccc23)cc1)Nc1ccccc1 [Compound P-0429]
≤ 10 µM: TEC | Btk

CCCS(=O)(=O)Nc1cccc(C(=O)c2c[nH]c3ncc(-c4ccccc4)cc23)c1F [Compound P-0897, Propane-1-sulfonic acid [2-fluoro-3-(5-phenyl-1H-pyrrolo[2,3-b]pyridine-3-carbonyl)-phenyl]-amide]
≤ 10 µM: FGFR1 | Pyk2 | TEC | Jnk1 | c-Raf-1 | B-Raf | B-Raf V600E | Btk

COc1ccc(S(=O)(=O)Nc2ccc(F)c(C(=O)c3c[nH]c4ncc(Cl)cc34)c2F)cc1 [Compound P-0983, N-[3-(5-Chloro-1H-pyrrolo[2,3-b]pyridine-3-carbonyl)-2,4-difluoro-phenyl]-4-methoxy-benzenesulfonamide]
≤ 10 µM: FGFR1 | TEC | Kit | c-Raf-1 | B-Raf | B-Raf V600E

C=C(C)c1cnc2[nH]cc(C(=O)c3c(F)ccc(NS(=O)(=O)CCC)c3F)c2c1 [Compound P-0991, Propane-1-sulfonic acid [2,4-difluoro-3-(5-isopropenyl-1H-pyrrolo[2,3-b]pyridine-3-carbonyl)-phenyl]-amide]
≤ 10 µM: FGFR1 | Pyk2 | TEC | Jnk3 | Jnk1 | c-Raf-1 | B-Raf | B-Raf V600E | Btk

CCCS(=O)(=O)Nc1ccc(F)c(C(=O)c2c[nH]c3ncc(C(C)C)cc23)c1F [Compound P-0997]
≤ 10 µM: FGFR1 | Pyk2 | TEC | Jnk1 | c-Raf-1 | B-Raf | B-Raf V600E | Btk | Src
